Assay results as given in PubChem BioAssay AID190 (DTP/NCI, 2004).
Several values for one entry are separate records, joined by “and”; a condition that tells them apart may be missing. Equal entries are not always repeated. Toxic doses and inconclusive results are not listed. The calls were made as follows: active = survival T/C of 150% or more; inactive = T/C below 125% in these data.

Test system: AKR/Lw mice, AKR lymphoma ip, median survival T/C
Test: NCI In Vivo Anticancer Drug Screen. Data for tumor model Lymphoma AKR (Transplanted) (intraperitoneal) in AKR/Lw mice
Settings: endpoint: median survival time, higher = longer survival
Protocol: The antitumor activity of compounds was measured in mice bearing transplantable tumors. Survival or tumor size were measured and the results are expressed as the measurement made in the treated group (T) divided by the measurement made in the vehicle treated control group (C). The tumor model used in this assay is Lymphoma AKR (Transplanted) (intraperitoneal) in AKR/Lw mice

[1] = dose: 100.0 mg/kg/injection, schedule: Q01DX001 (ip), vehicle: Klucel (hydroxypropylcellulose) (HPC)
[2] = dose: 200.0 mg/kg/injection, schedule: Q01DX001 (ip), vehicle: Klucel (hydroxypropylcellulose) (HPC)
[3] = dose: 400.0 mg/kg/injection, schedule: Q01DX001 (ip), vehicle: Klucel (hydroxypropylcellulose) (HPC)
[4] = dose: 100.0 mg/kg/injection, schedule: Q01DX001 (ip), vehicle: other
[5] = dose: 200.0 mg/kg/injection, schedule: Q01DX001 (ip), vehicle: other
[6] = dose: 400.0 mg/kg/injection, schedule: Q01DX001 (ip), vehicle: other
[7] = dose: 100.0 mg/kg/injection, schedule: Q01DX001 (ip), vehicle: saline
[8] = dose: 200.0 mg/kg/injection, schedule: Q01DX001 (ip), vehicle: saline
[9] = dose: 400.0 mg/kg/injection, schedule: Q01DX001 (ip), vehicle: saline

Measured: T/C

O=C(O)c1ccc(SSc2ccc(C(=O)O)cn2)nc1
inactive: dose: 12.5 mg/kg/injection, schedule: Q01DX009 (ip), vehicle: Klucel (hydroxypropylcellulose) (HPC) 100 % of control | dose: 25.0 mg/kg/injection, schedule: Q01DX009 (ip), vehicle: Klucel (hydroxypropylcellulose) (HPC) 92 % of control | dose: 50.0 mg/kg/injection, schedule: Q01DX009 (ip), vehicle: Klucel (hydroxypropylcellulose) (HPC) 102 % of control | [1] 95 % of control and 102 % of control | [2] 90 % of control and 92 % of control | [3] 95 % of control and 97 % of control

CCOC(=O)C(O)C(C#N)c1ccccc1 (stereo unspecified)
inactive: [4] 103 % of control | [5] 103 % of control | [6] 100 % of control

CC(/C=N/N=C(N)N)=N\N=C(N)N
inactive: dose: 1.5 mg/kg/injection, schedule: Q01DX015 (ip), vehicle: saline 87 % of control | dose: 5.0 mg/kg/injection, schedule: Q01DX015 (ip), vehicle: saline 90 % of control | dose: 6.25 mg/kg/injection, schedule: Q01DX015 (ip), vehicle: saline 96 % of control | dose: 10.0 mg/kg/injection, schedule: Q01DX015 (ip), vehicle: saline 90 % of control

OCC1=C(CO)C2(Cl)C(Cl)=C(Cl)C1(Cl)C2(Cl)Cl
inactive: [2] 95 % of control | [3] 91 % of control

CCOC(=O)C1OC12CCCCC2 (stereo unspecified)
inactive: [1] 96 % of control | [2] 92 % of control | [3] 100 % of control

O=C1CC2CCCC(C1)S2=O (stereo unspecified)
inactive: [7] 113 % of control | [8] 89 % of control | [9] 97 % of control

c1ccc(CC(Cc2ccccc2)CN2CCCC2)cc1
inactive: [7] 94 % of control | [8] 88 % of control | [9] 123 % of control

NC(CSC(c1ccccc1)(c1ccccc1)c1ccc(CO)cc1)C(=O)O (stereo unspecified)
inactive: [1] 100 % of control | [2] 94 % of control | [3] 110 % of control

CC(=O)CC(=O)c1ccccc1
inactive: [1] 106 % of control | [2] 106 % of control | [3] 103 % of control

O=[N+]([O-])O.[Th]
inactive: [7] 113 % of control | [8] 109 % of control | [9] 104 % of control

CN(C)S(=O)(=O)Nc1cc(Cl)c(NS(=O)(=O)N(C)C)cc1Cl
inactive: [1] 93 % of control | [2] 106 % of control | [3] 100 % of control

CCOC(=O)CCCl
inactive: [2] 111 % of control | [3] 97 % of control

O=c1[nH]cc(-c2ccccc2)c(=O)[nH]1
inactive: [7] 94 % of control | [8] 88 % of control | [9] 97 % of control

CC1(C)N=C(N)N=C(N)N1c1cc(Cl)c(Cl)cc1Cl
inactive: dose: 25.0 mg/kg/injection, schedule: Q01DX001 (ip), vehicle: Klucel (hydroxypropylcellulose) (HPC) 106 % of control | dose: 35.0 mg/kg/injection, schedule: Q01DX001 (ip), vehicle: Klucel (hydroxypropylcellulose) (HPC) 100 % of control | dose: 50.0 mg/kg/injection, schedule: Q01DX001 (ip), vehicle: Klucel (hydroxypropylcellulose) (HPC) 106 % of control

O=NN(CCCl)C(=O)N[C@H]1CCCC[C@@H]1Cl
inactive: dose: 5.0 mg/kg/injection, schedule: Q04DX004 (ip), vehicle: Klucel (hydroxypropylcellulose) (HPC) 123 % of control | dose: 5.0 mg/kg/injection, schedule: Q04DX004 (ip), vehicle: saline 117 % of control | dose: 20.0 mg/kg/injection, schedule: Q04DX004 (ip), vehicle: Klucel (hydroxypropylcellulose) (HPC) 97 % of control

C[C@]12CCC(=O)C=C1CC[C@@H]1[C@@H]2[C@@H](O)C[C@@]2(C)[C@H]1CC[C@]2(O)C(=O)CO
inactive: dose: 5.0 mg/kg/injection, schedule: Q01DX005 (sc), vehicle: steriod suspending solution 117 % of control | dose: 10.0 mg/kg/injection, schedule: Q01DX005 (sc), vehicle: steriod suspending solution 106 % of control | dose: 20.0 mg/kg/injection, schedule: Q01DX005 (sc), vehicle: steriod suspending solution 106 % of control | dose: 25.0 mg/kg/injection, schedule: Q01DX005 (sc), vehicle: steriod suspending solution 94 % of control | dose: 50.0 mg/kg/injection, schedule: Q01DX005 (sc), vehicle: steriod suspending solution 107 % of control

COC(=O)CC(=O)c1ccc(C)cc1
inactive: [1] 100 % of control | [2] 103 % of control | [3] 120 % of control

O=C(O)O
inactive: [7] 86 % of control | [8] 117 % of control | [9] 95 % of control

CN(C)CCCNC(=O)Nc1ccccc1
inactive: [1] 103 % of control | [2] 93 % of control

c1cc2cc3c(cc2cc1CC1=NCCc2cc4c(cc21)OCO4)OCO3
inactive: [4] 105 % of control | dose: 100.0 mg/kg/injection, schedule: Q04DX003 (ip), vehicle: other 100 % of control | [5] 100 % of control | dose: 200.0 mg/kg/injection, schedule: Q04DX003 (ip), vehicle: other 100 % of control | [6] 102 % of control | dose: 400.0 mg/kg/injection, schedule: Q04DX003 (ip), vehicle: other 100 % of control

Cc1ccc(OS(=O)(=O)c2ccc([N+](=O)[O-])cc2)cc1
inactive: dose: 90.0 mg/kg/injection, schedule: Q01DX001 (ip), vehicle: Klucel (hydroxypropylcellulose) (HPC) 102 % of control | dose: 135.0 mg/kg/injection, schedule: Q01DX001 (ip), vehicle: Klucel (hydroxypropylcellulose) (HPC) 102 % of control | [2] 100 % of control | dose: 300.0 mg/kg/injection, schedule: Q01DX001 (ip), vehicle: Klucel (hydroxypropylcellulose) (HPC) 93 % of control

C[N+](C)(C)Cc1ccccc1
inactive: dose: 25.0 mg/kg/injection, schedule: Q01DX001 (ip), vehicle: saline 91 % of control
